Experimental data published in paper PMC6277375, “Pharmacological profile of the neuropeptide S receptor: Dynamic mass redistribution studies” (Pharmacology Research & Perspectives, 2018).
Marks after values point to notes of the source that are not given here. Square brackets hold non-standard residues; d marks the D form. Ends that are not written are not given here. Peptide text beside a SMILES is read from it. Bip = N[C@@H](Cc1ccc(-c2ccccc2)cc1)C(=O)O; Aib = CC(C)(N)C(=O)O

How the values were obtained:
murine NPSR = target: T1, murine NPSR (Mus musculus, UniProt Q8BZP8); assay: Dynamic mass redistribution (DMR) assay in HEK293mNPSR cells; type: cell-based; details: for EC50 / intrinsic activity α ± SEM / Agonist potency pEC50 (CL95%): DMR; for EC50 / Agonist potency pEC50 (CL95%): agonism protocol, 60 minute recording, at least three experiments in duplicate; for EC50: read-out: Agonist potency pEC50 (CL95%) (converted); for fold less potent than NPS (DMR): agonist potency relative to NPS; for DMR response, HEK293mNPSR pm ± SEM: peak at 60 minute, mean ± SEM, duplicate; for Effect of inhibitor on NPS-evoked DMR response: FR900359 1 μmol L^−1 (60 minute before NPS), PTX 100 ng mL^−1 (24 hours before), rolipram 10 μmol L^−1 (90 minute before)
T1 construct: expressed in transfected cells
T1 sequence (Q8BZP8 1-371): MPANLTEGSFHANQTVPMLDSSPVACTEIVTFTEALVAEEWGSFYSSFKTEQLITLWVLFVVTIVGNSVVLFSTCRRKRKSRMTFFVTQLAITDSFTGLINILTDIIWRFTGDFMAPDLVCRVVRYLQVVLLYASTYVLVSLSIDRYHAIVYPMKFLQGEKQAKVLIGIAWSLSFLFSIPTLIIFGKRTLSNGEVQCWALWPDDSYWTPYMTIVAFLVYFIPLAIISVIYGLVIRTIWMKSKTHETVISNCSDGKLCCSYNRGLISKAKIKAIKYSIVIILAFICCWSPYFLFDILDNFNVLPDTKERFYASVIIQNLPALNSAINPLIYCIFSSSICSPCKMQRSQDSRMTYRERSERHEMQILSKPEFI
Method: (§1) HEK293 cells stably expressing the murine NPSR receptor (HEK293mNPSR) were described previously.3 Wild‐type HEK293 cells were used as a control. Cells were maintained in Dulbecco's Medium (DMEM) supplemented with 10% fetal bovine serum, 100 U/mL penicillin, 100 μg/mL streptomycin and, 2 mmol L^−1 L‐glutamine. The medium was complemented with 100 mg/L hygromycin for HEK293mNPSR. Cells were cultured at 37°C in 5% CO2 humidified air.
Confluent cells were subcultured using trypsin/EDTA and used for experiments. […] On the day of the experiment, cells were manually washed twice and maintained with assay buffer for 90 minutes before DMR experiments. DMR was monitored in real time with a temporal resolution of 22 seconds throughout the assay. Experiments were performed at 37°C, using an EnSight Multimode Plate Reader (PerkinElmer), that uses the Corning® Epic® Technology to measure the DMR signal. Agonism protocol: a 5‐minute baseline was first established, followed by adding compounds manually in a volume of 10 μL and recording compounds‐triggered DMR signal for 60 minute. Antagonism protocol: antagonists were added manually 25 minute before reading the 5‐minute baseline. After baseline establishment, NPS was injected and DMR signal was recorded for 60 minute. Antagonist properties of ligands were measured by assessing the concentration‐response curve to NPS in the absence and in presence of a fixed concentration of compound. FR900359 was added 60 minute before NPS, rolipram was incubated for 90 minute before NPS, while PTX was added 24 hours before NPS. Maximum picometer (pm) modifications (peak measured at 60 minute time point) were used to determine agonist response after baseline normalization.
All data were analyzed using Graph Pad Prism 6.0 (La Jolla, CA, USA). Concentration‐response curves were fitted using the four parameters log logistic equation. Data are expressed as mean ± SEM of n experiments performed in duplicate and were analyzed using one‐ or two‐way analysis of variance (ANOVA) followed by Dunnett's or Tukey's test for multiple comparisons wherever appropriate. […] Antagonists potencies were assayed at single concentrations against the concentration‐response curve to NPS and their pA2 was derived using the following equation: pA2 = log(CR − 1) − log[A], where CR is the ratio between agonist potency (EC50) in the presence and in absence of antagonist and [A] is the molar concentration of antagonist.

wild-type HEK293 cells = assay: DMR assay in wild-type HEK293 cells (control); type: cell-based, Human; details: mean ± SEM, duplicate
Method: as §1
Confluent cells were subcultured using trypsin/EDTA and used for experiments. Cells were seeded at a density of 20 000 cells/well in 30 μL into fibronectin‐coated Enspire™‐LC 384‐wells plates and cultured for 20 hours to form a confluent monolayer. On the day of the experiment, cells were manually washed twice and maintained with assay buffer for 90 minutes before DMR experiments. DMR was monitored in real time with a temporal resolution of 22 seconds throughout the assay. Experiments were performed at 37°C, using an EnSight Multimode Plate Reader (PerkinElmer), that uses the Corning® Epic® Technology to measure the DMR signal. Agonism protocol: a 5‐minute baseline was first established, followed by adding compounds manually in a volume of 10 μL and recording compounds‐triggered DMR signal for 60 minute. Antagonism protocol: antagonists were added manually 25 minute before reading the 5‐minute baseline. After baseline establishment, NPS was injected and DMR signal was recorded for 60 minute. Antagonist properties of ligands were measured by assessing the concentration‐response curve to NPS in the absence and in presence of a fixed concentration of compound. FR900359 was added 60 minute before NPS, rolipram was incubated for 90 minute before NPS, while PTX was added 24 hours before NPS. Maximum picometer (pm) modifications (peak measured at 60 minute time point) were used to determine agonist response after baseline normalization.
All data were analyzed using Graph Pad Prism 6.0 (La Jolla, CA, USA). Concentration‐response curves were fitted using the four parameters log logistic equation. Data are expressed as mean ± SEM of n experiments performed in duplicate and were analyzed using one‐ or two‐way analysis of variance (ANOVA) followed by Dunnett's or Tukey's test for multiple comparisons wherever appropriate. Agonist potency was expressed as pEC50, which is the negative logarithm to base 10 of the agonist molar concentration that produces 50% of the maximal possible effect of that agonist. Antagonists potencies were assayed at single concentrations against the concentration‐response curve to NPS and their pA2 was derived using the following equation: pA2 = log(CR − 1) − log[A], where CR is the ratio between agonist potency (EC50) in the presence and in absence of antagonist and [A] is the molar concentration of antagonist.

[1] = ligand 10 μmol L^−1, 37°C, peak at 60 minute after baseline normalization
[2] = ligand 1 μmol L^−1, 37°C, peak at 60 minute

| Molecule | intrinsic activity α ± SEM (murine NPSR; relative to NPS = 1.00, SEM) | fold less potent than NPS (DMR) (murine NPSR) | DMR response, HEK293mNPSR pm ± SEM (murine NPSR; ligand 10 μmol L^−1, 37°C) | DMR response, HEK293 pm ± SEM (wild-type HEK293 cells; [1]) | also measured |
| --- | --- | --- | --- | --- | --- |
| CSCC[C@H](NC(=O)CNC(=O)[C@@H](NC(=O)CNC(=O)[C@@H](NC(=O)C(C)(C)NC(=O)[C@H](CC(N)=O)NC(=O)[C@H](CCCNC(=N)N)NC(=O)[C@H](Cc1ccccc1)NC(=O)[C@@H](N)CO)C(C)C)[C@@H](C)O)C(=O)N[C@@H](CCCCN)C(=O)N[C@@H](CCCCN)C(=O)N[C@H](C(=O)N[C@@H](CO)C(=O)N[C@@H](Cc1ccccc1)C(=O)N[C@@H](CCC(N)=O)C(=O)N[C@@H](CCCNC(=N)N)C(=O)N[C@@H](C)C(=O)N[C@@H](CCCCN)C(=O)N[C@@H](CO)C(=O)O)[C@@H](C)O [[Aib^5]NPS] (H-SFRN[Aib]VGTGMKKTSFQRAKS-OH) |  |  |  |  | EC50 (murine NPSR): 145 nM |
| NPS(1‐6): NPS fragment (SFRNGV; Neuropeptide S; UniProt P0C0P6 70-75, looked up, fragment) |  |  | 356 ± 48 ^a pm | 25 ± 10 pm | Agonist potency pEC50 (CL95%) (murine NPSR): crc incomplete; intrinsic activity α ± SEM (murine NPSR; relative to NPS = 1.00): crc incomplete |
| COc1ccc(C2CNC(=O)C2)cc1OC1CCCC1 (stereo not shown) [rolipram, reference compound] |  |  |  |  | Effect of inhibitor on NPS-evoked DMR response (murine NPSR): did not change NPS effects |
| C[N+](C)(C)CCOC(N)=O [Carbachol, reference compound] |  |  |  |  | DMR response, HEK293 pm ± SEM (wild-type HEK293 cells; ligand 100 μmol L^−1, 37°C, peak at 60 minute): 480 ± 51 ^a pm; DMR response, HEK293mNPSR pm ± SEM (murine NPSR; ligand 100 μmol L^−1, 37°C): 393 ± 9 ^a pm |
| NPS(3‐20): NPS fragment (RNGVGTGMKKTSFQRAKS; Neuropeptide S; UniProt P0C0P6 72-89, looked up, fragment) |  |  | 675 ± 54 ^a pm | 166 ± 14 ^a pm | DMR response, HEK293 pm ± SEM (wild-type HEK293 cells; [2]): 41 ± 14 pm; Agonist potency pEC50 (CL95%) (murine NPSR): crc incomplete; intrinsic activity α ± SEM (murine NPSR; relative to NPS = 1.00): crc incomplete; DMR response, HEK293mNPSR pm ± SEM (murine NPSR; ligand 1 μmol L^−1, 37°C): 315 ± 17 ^a pm |
| SFRNGVGTGMKKTSFQRAKS [NPS, Neuropeptide S] |  |  |  |  | EC50 (murine NPSR): 1.66 nM |
| SFRNGVGTGM [NPS(1‐10)] | 1.09 ± 0.14 | 100 fold | 683 ± 90 ^a pm | 27 ± 6 pm | fold less potent than NPS (DMR) (murine NPSR; listed as NPS (1‐10)): approximately 100 fold |
| Pertussis Toxin [PTX] |  |  |  |  | Effect of inhibitor on NPS-evoked DMR response (murine NPSR): did not modify NPS‐evoked DMR response |
| [D‐Val^5]NPS |  |  |  |  | Agonist potency pEC50 (CL95%) (murine NPSR): Inactive; intrinsic activity α ± SEM (murine NPSR; relative to NPS = 1.00): Inactive |
| FRNGVGTGMKKTSFQRAKS [NPS(2‐20)] | 1.14 ± 0.05 | approximately 30 fold | 782 ± 46 ^a pm | 70 ± 10 pm |  |

The next lines start with results.

| intrinsic activity α ± SEM (murine NPSR; relative to NPS = 1.00, SEM) | fold less potent than NPS (DMR) (murine NPSR) | DMR response, HEK293mNPSR pm ± SEM (murine NPSR; ligand 10 μmol L^−1, 37°C) | Molecule | DMR response, HEK293 pm ± SEM (wild-type HEK293 cells; [1]) | also measured |
| --- | --- | --- | --- | --- | --- |
| 1.09 ± 0.04 | approximately 30 fold | 686 ± 50 ^a pm | CSCC[C@H](NC(=O)CNC(=O)[C@@H](NC(=O)CNC(=O)[C@@H](NC(=O)[C@@H](C)NC(=O)[C@H](CC(N)=O)NC(=O)[C@H](CCCNC(=N)N)NC(=O)[C@H](Cc1ccccc1)NC(=O)[C@@H](N)CO)C(C)C)[C@@H](C)O)C(=O)N[C@@H](CCCCN)C(=O)N[C@@H](CCCCN)C(=O)N[C@H](C(=O)N[C@@H](CO)C(=O)N[C@@H](Cc1ccccc1)C(=O)N[C@@H](CCC(N)=O)C(=O)N[C@@H](CCCNC(=N)N)C(=O)N[C@@H](C)C(=O)N[C@@H](CCCCN)C(=O)N[C@@H](CO)C(=O)O)[C@@H](C)O [[D‐Ala^5]NPS] (H-SFRN[dA]VGTGMKKTSFQRAKS-OH; N-terminus and C-terminus assumed) | 55 ± 14 pm |  |
| 1.01 ± 0.04 | approximately 30 fold | 761 ± 60 ^a pm | CSCC[C@H](NC(=O)CNC(=O)[C@@H](NC(=O)CNC(=O)[C@@H](NC(=O)CNC(=O)[C@H](CC(N)=O)NC(=O)[C@H](CCCNC(=N)N)NC(=O)[C@H](Cc1ccc(-c2ccccc2)cc1)NC(=O)[C@@H](N)CO)C(C)C)[C@@H](C)O)C(=O)N[C@@H](CCCCN)C(=O)N[C@@H](CCCCN)C(=O)N[C@H](C(=O)N[C@@H](CO)C(=O)N[C@@H](Cc1ccccc1)C(=O)N[C@@H](CCC(N)=O)C(=O)N[C@@H](CCCNC(=N)N)C(=O)N[C@@H](C)C(=O)N[C@@H](CCCCN)C(=O)N[C@@H](CO)C(=O)O)[C@@H](C)O [[Bip^2]NPS] (H-S[Bip]RNGVGTGMKKTSFQRAKS-OH; N-terminus and C-terminus assumed) | 191 ± 30 ^a pm | DMR response, HEK293 pm ± SEM (wild-type HEK293 cells; [2]): 47 ± 16 pm; DMR response, HEK293mNPSR pm ± SEM (murine NPSR; ligand 1 μmol L^−1, 37°C): 577 ± 2 ^a pm |
| 1.03 ± 0.03 |  | 692 ± 15 ^a pm | SFRNGVATGMKKTSFQRAKS [[Ala^7]NPS] | 115 ± 33 pm |  |
